# Laboratory results reported in article PMC3208381 (European journal of medicinal chemistry, 2011).
# Biological target: HCV NS5B polymerase (NS5BCΔ21) (Hepatitis C virus genotype 1b, UniProt P26663)
# Assay: NS5B inhibition assay
# Type: biochemical
# Conditions: for fold decrease in activity relative to thiophene parent compound 5a: NS5B IC50 compared with compound 5a; for fold enhancement of inhibitory activity relative to 5-methyl analog 6a: NS5B IC50 compared with compound 6a; for fold more active than 15a: NS5B IC50 compared with compound 15a
smiles,measurement,setting,value
"O=C(O)/C(O)=C/C(=O)c1nccs1 [Compound 12a, 2-Hydroxy-4-(4-thiazole-2-yl)-4-oxobut-2-enoic acid]",fold decrease in activity relative to thiophene parent compound 5a,,~ 1.8 fold
"Cc1csc(C(=O)/C=C(\O)C(=O)O)c1 [Compound 10a, 2-Hydroxy-4-(4-methylthiophen-2-yl)-4-oxobut-2-enoic acid]",fold enhancement of inhibitory activity relative to 5-methyl analog 6a,,~ 2 fold
"O=C(O)/C(O)=C/C(=O)c1ccc(Br)s1 [Compound 8a, 4-(5-Bromothiophen-2-yl)-2-hydroxy-4-oxobut-2-enoic acid]",fold enhancement of inhibitory activity relative to 5-methyl analog 6a,,~ 2 fold
"Cc1ccsc1C(=O)/C=C(\O)C(=O)O [Compound 11a, 2-Hydroxy-4-(3-methylthiophen-2-yl)-4-oxobut-2-enoic acid]",fold enhancement of inhibitory activity relative to 5-methyl analog 6a,,~ 7 fold
"O=C(O)/C(O)=C/C(=O)c1cc2cc(Br)ccc2o1 [Compound 3a, 4-(5-Bromobenzofuran-2-yl)-2-hydroxy-4-oxobut-2-enoic acid]",fold improvement in inhibitory activity over compound 2a,NS5B IC50 compared with compound 2a,~ 3.5 fold
"O=C(O)/C(O)=C/C(=O)c1cccs1 [Compound 5a, 2-Hydroxy-4-(thiophen-2-yl)-4-oxobut-2-enoic acid]",fold increase in inhibitory activity over compound 4a,NS5B IC50 compared with compound 4a,~ 2.2 fold
"O=C(O)/C(O)=C/C(=O)c1ccc(Cl)s1 [Compound 7a, 2-Hydroxy-4-(5-chlorothiophene-2-yl)-4-oxobut-2-enoic acid]",fold enhancement of inhibitory activity relative to 5-methyl analog 6a,,~ 2 fold
"Cc1ccc(C(=O)/C=C(\O)C(=O)O)s1 [Compound 6a, 2-Hydroxy-4-(5-methylthiophen-2-yl)-4-oxobut-2-enoic acid]",fold decrease in activity relative to thiophene parent compound 5a,,approximately 3 fold
"O=C(O)/C(O)=C/C(=O)c1ccccc1F [Compound 17a, 4-(2-Fluorophenyl)-2-hydroxy-4-oxobut-2-enoic acid]",fold more active than 15a,,~ 2 fold
"O=C(O)/C(O)=C/C(=O)c1ccccc1[N+](=O)[O-] [Compound 16a, 2-Hydroxy-4-(2-nitrophenyl)-4-oxobut-2-enoic acid]",fold more active than 15a,,~ 2 fold
